The results in this text go back to patent US10420787B2, “Crystal-water-free calcium dibutyryladenosine cyclophosphate crystal form and preparation method and application thereof” (SPH NO.1 BIOCHEMICAL & PHARMACEUTICAL CO., LTD., priority 2014, dated 2019).

“And” between values parts separate entries of the source, which are not always exact repeats. Identical values can stand only once.

The nature of series [1]: Hygrothermal acceleration stability test (30° C., relative humidity 75±5%, 6 months). It counts as physicochemical. As to conditions: RH 75±5%; for Related substances (%): HPLC. An excerpt:
(§1) Chromatographic conditions include:
(§2) HPLC purity is detected according to the method in the following embodiments.

Series [2] is described as follows: Long-term observation stability test (16° C., relative humidity 60±5%, 12 months). It counts as physicochemical. The note with it: RH 60±5%; for Related substances (%): HPLC.
Excerpt: as §1, §2

On to `CCCC(=O)Nc1ncnc2c1ncn2[C@@H]1O[C@@H]2COP(=O)([O-])O[C@H]2[C@H]1OC(=O)CCC.CCCC(=O)Nc1ncnc2c1ncn2[C@@H]1O[C@@H]2COP(=O)([O-])O[C@H]2[C@H]1OC(=O)CCC.[Ca+2]` [Anhydrouscalcium dibutyryladenosine cyclophosphate solids] [anhydrous calcium dibutyryladenosine cyclophosphate, reference compound], for which the “Related substances (%)” value turned out to be 4.3% in series [1] (0 months); 4.9% in series [1] (1 month); 5.5% in series [1] (2 months); 6.0% in series [1] (3 months); 6.7% in series [1] (6 months); 4.3% in series [2] (0 months). Further, the “Related substances (%)” value in series [2] (3 months) is reported as 4.6%; in series [2] (6 months), 4.8%; in series [2] (9 months), 5.2%; in series [2] (12 months) it was 5.4%. For the same molecule, the “Content (%)” value is on record as 94.8% in series [1] (1 month); 94.2% in series [1] (2 months); 93.5% in series [1] (3 months); 93.0% in series [1] (6 months); 954% in series [2] (0 months); 95.0% in series [2] (3 months). Moreover, the figures for the “Content (%)” value in series [2] (9 months) and in series [2] (12 months) were 94.4% and 94.1%, respectively.

As to `CCCC(=O)Nc1ncnc2c1ncn2[C@@H]1O[C@@H]2COP(=O)([O-])O[C@H]2[C@H]1OC(=O)CCC.CCCC(=O)Nc1ncnc2c1ncn2[C@@H]1O[C@@H]2COP(=O)([O-])O[C@H]2[C@H]1OC(=O)CCC.[Ca+2]` [calcium dibutyryladenosine cyclophosphate], the “Content (%)” value in series [1] (0 months) was 95.8% and 96.2% and 95.2%; in series [1] (1 month), 95.3% and 95.8% and 95.0%; in series [1] (2 months), 95.1% and 95.4%; in series [1] (3 months), 94.9% and 95.0% and 94.7%; in series [1] (6 months), 94.5% and 94.7% and 94.3%; in series [2] (0 months), 95.8% and 96.2% and 95.2%. In addition, the “Content (%)” value in series [2] (3 months) is 95.5% and 96.1% and 95.3%; in series [2] (6 months), 95.6% and 96.0% and 95.1%; in series [2] (9 months), 95.5% and 95.9% and 95.0%; in series [2] (12 months), 95.3% and 95.8% and 94.9%. The “Related substances (%)” value in series [1] (0 months) was 3.8% and 4.1% and 4.0%; in series [1] (1 month) it was 3.9% and 4.0% and 4.1%; in series [1] (2 months), 4.0% and 4.1%; in series [1] (3 months) it was 4.2% and 4.3%; in series [1] (6 months), 4.5% and 4.7% and 4.6%; in series [2] (0 months) it was 3.8% and 4.1% and 4.0%. Further, the “Related substances (%)” value is 3.7% and 4.2% and 4.1% in series [2] (3 months); 3.8% and 4.1% and 4.3% in series [2] (6 months); 3.7% and 4.0% and 4.2% in series [2] (9 months); 4.0% and 4.3% and 4.4% in series [2] (12 months).

On to “calcium dibutyryladenosine cyclophosphate 2.3 hydrates [DBC-Ca•2.3H2O crystals, reference compound]”, for which the “Content (%)” value in series [1] (0 months) came to 90.2%; in series [1] (1 month), 90.1%; in series [1] (2 months) it was 89.8%; in series [1] (3 months), 89.7%; in series [1] (6 months), 89.3%; in series [2] (0 months) it was 90.2%. For the same molecule, the “Content (%)” value in series [2] (3 months) is listed as 90.0%; in series [2] (6 months) it was 89.9%; in series [2] (9 months), 89.7%; in series [2] (12 months), 89.6%. Also, the “Related substances (%)” value was determined as 5.3% in series [1] (0 months); 5.5% in series [1] (1 month); 5.8% in series [1] (2 months); 5.9% in series [1] (3 months); 6.1% in series [1] (6 months); 5.3% in series [2] (0 months). Further, the “Related substances (%)” value in series [2] (3 months) came out at 5.3%; in series [2] (6 months), 5.5%; in series [2] (9 months), 5.6%; in series [2] (12 months), 5.9%.
